Entries after “also recorded” stand apart in the source; their conditions may differ.
Columns and labels:
epidermal cells = settings: 5 mg/g of CMC, about 140 μg per array; 72 hours of exposure
Experimental: Cytoxan® was integrated at a concentration of 5 mg/g of CMC, enabling delivery of approximately about 140 μg per array. […] Living human skin organ cultures were used to assess the cytotoxicity of Cytoxan®. Cytoxan® was delivered by application of arrays to skin explants as we previously described. Arrays and residual material were removed 5 minutes after application, and after 72 hours of exposure, culture living skin explants were cryo-sectioned and fixed.

[1] = MNA DNBS dose response, ear thickness increase and histology; type: in vivo, mouse; settings: MNAs with 25 ng, 50 ng and 100 ng tested; ear thickness increase
Experimental: These figures illustrate an exemplary MNA DNBS dose response, by indicating an optimal lowest dose of hapten contained in MNAs capable of inducing effective skin acute and chronic inflammation. In particular, FIG. 51A charts MNA DNBS doses as a percentage of ear thickness increase. FIG. 51B provides histological detail of treated ear skin following the application of MNAs with the three different doses of DNBS (25 ng, 50 ng, and 100 ng).

[2] = Dye release from MNAs inserted into 4% agar test-gels; type: physicochemical; settings: dually loaded MNA
Description: To illustrate the delivery of multiple drugs with distinct release kinetics, MNAs were fabricated to delivery two distinct cargos by distinct release kinetics. Specifically, MNAs were fabricated to release the marker Toluidine Blue in an initial burst, followed by a sustained release of the marker FD&C Red40. Dyes were directly loaded in the MNA scaffold matrix (in this case CMC) of the needle tips and in some cases a second dye, encapsulated in a sustained release polymer was layer directly below. MNAs were inserted into 4% agar test-gels and removed after 1 min.
Images of dye diffusion were collected at the indicated time points (FIG. 39A). As shown in FIGS. 39A-C, FD&C Red40 (FIG. 39A) and toluidine blue (FIG. 39B), tracer dyes were tip-loaded in MNAs for immediate release. Alternatively, MNAs were fabricated with toluidine blue tip-loaded and FD&C Red40 encapsulated in a sustained release polymer (FIG. 39C). MNAs were inserted into 4% agar test-gel and removed after 1 min. Images were collected at the indicated time-points. Tip-loaded cargos were rapidly released from the MNAs and dispersed progressively in the gel (FIG. 39A and B). […] Upper panels depict images of microneedles from MNAs before application. The middle images are the imprints of the arrays 1 minute after application and MNA removal. Lower panels depicted the indicated representative magnified images at the indicated time points.

B16 melanoma = assay: Treatment of established B16 skin tumors with MNAs; settings: MNA once weekly for three weeks; for survival: untreated 100% mortality
Experimental: B16 skin tumors were established in normal mice by injection. Visible established cutaneous tumors were treated once weekly for three weeks with MNAs containing either doxorubicin alone, Poly(I:C) alone, or doxorubicin and Poly(I:C) incorporated into the same MNA. The doxorubicin dose chosen corresponds to an MNA dose that induces apoptosis in human skin without causing necrosis. Tumor growth and survival were measured regularly for the duration of the study.

NK1R [3] = molecular target: T1, NK1R (Homo sapiens, UniProt P25103); assay: Human mixed leukocyte cultures (MLC), skin DC as stimulators of allogeneic naive CD4 T cells, with SarSP; type: cell-based; settings: SarSP added to MLC
T1 construct: adding SarSP to human mixed leukocyte cultures (MLC) using skin DC as stimulators of allogeneic naïve CD4 T cells; endogenous in cells; host or cells: human skin dendritic cells from skin explants, co-cultured with allogeneic T cells (MLC)
T1 sequence (P25103 whole entry): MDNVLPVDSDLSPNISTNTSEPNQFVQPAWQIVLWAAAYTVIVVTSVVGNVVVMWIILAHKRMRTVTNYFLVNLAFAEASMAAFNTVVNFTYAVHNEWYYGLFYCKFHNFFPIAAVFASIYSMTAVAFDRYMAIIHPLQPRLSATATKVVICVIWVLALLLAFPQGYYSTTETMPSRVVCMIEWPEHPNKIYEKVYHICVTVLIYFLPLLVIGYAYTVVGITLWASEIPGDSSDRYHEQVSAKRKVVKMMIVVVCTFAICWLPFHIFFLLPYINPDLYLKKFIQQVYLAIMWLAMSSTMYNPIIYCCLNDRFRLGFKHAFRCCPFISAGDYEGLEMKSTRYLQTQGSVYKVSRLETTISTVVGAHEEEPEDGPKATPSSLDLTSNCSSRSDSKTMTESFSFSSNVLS
Description: FIGS. 42A and 42B show human skin DCs express functional NK1R. […] Conventional rigid MNA with pyramid geometry can suffer from limited skin penetration, and poor and unreliable cargo delivery capacity compared to the novel microneedle structures disclosed herein. For example, in some embodiments, the delivery systems disclosed herein integrate biologics into dissolvable carboxymethyl-cellulose (CMC) microneedles with obelisk geometries.

NK1R [4] = molecular target: T2, NK1R (Mus musculus, UniProt P30548); assay: DTH reaction in mice sensitized with DNCB with NK1R agonist SarSP; type: in vivo; settings: C57BL/6 (B6) mice sensitized with DNCB in the presence of SarSP (10^−9 M)
T2 construct: from tissue
T2 sequence (P30548 whole entry): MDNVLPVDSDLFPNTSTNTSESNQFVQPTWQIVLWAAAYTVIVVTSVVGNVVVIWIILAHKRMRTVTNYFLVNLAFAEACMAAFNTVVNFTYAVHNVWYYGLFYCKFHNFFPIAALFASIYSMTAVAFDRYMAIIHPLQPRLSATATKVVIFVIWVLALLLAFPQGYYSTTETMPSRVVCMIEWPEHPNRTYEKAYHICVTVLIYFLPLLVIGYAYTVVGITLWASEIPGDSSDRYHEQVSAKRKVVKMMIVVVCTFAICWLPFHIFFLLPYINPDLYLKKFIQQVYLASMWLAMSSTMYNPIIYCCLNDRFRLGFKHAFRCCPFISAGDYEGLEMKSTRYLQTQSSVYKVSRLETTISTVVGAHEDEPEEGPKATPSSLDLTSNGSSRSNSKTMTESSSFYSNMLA
Description: The effect of different treatments in B6-WT mice was compared with n=6/experimental group. […] The inflammatory infiltrate was composed of leukocytes including polimorphonuclear neutrophils (PMN) and eosinophils as shown in the inset of FIG. 45A.
Means±1SD of 6 mice/experimental group are illustrated, with three independent experiments performed.

NK1R [5] = molecular target: T2, NK1R; assay: Histology of skin and skin draining lymph nodes of B6-WT mice sensitized with DNCB with or without SarSP; type: in vivo
Description: (A & C: H and E, 200×; Insets, 1,000×; B & D: TB, 200×; Insets 1,000×; NT refers to non-treated mice.)
The effect of different treatments in B6-WT mice was compared with n=6/experimental group.

[6] = tested on: OVA-specific CTL activity; assay: OVA-specific CTL activity in vivo after CMC-microneedle array immunization; settings: mice immunized on ears with pyramidal arrays, boosted one week later

Molecule: O=P1(N(CCCl)CCCl)NCCCO1 (stereo not shown) [Cytoxan®, cyclophosphamide]
- apoptosis of epidermal cells (TUNEL) (epidermal cells): extensive apoptosis of epidermal cells

Molecule: O=[N+]([O-])c1ccc(S(=O)(=O)O)c([N+](=O)[O-])c1 [DNBS, 2,4-Dinitrobenzenesulfonic acid]
- optimal, lowest dose inducing skin acute and chronic inflammation [1]: 50 ng

Molecule: COc1cc(S(=O)(=O)[O-])c(C)cc1N=Nc1c(O)ccc2cc(S(=O)(=O)[O-])ccc12.[Na+].[Na+] [FD&C Red40]
- release of encapsulated dye ([2]; dye encapsulated in sustained release polymer): released slowly over an extended time period
- period of release from depot ([2]; dye in underlying layer of sustained release polymer): 10 days

Molecule: Cc1cc2nc3ccc(N(C)C)cc3[s+]c2cc1N.[Cl-] [Toluidine Blue]
- release of tip-loaded dye ([2]; dye in CMC in the needle tip): released in an initial burst

Molecule: COc1cccc2c1C(=O)c1c(O)c3c(c(O)c1C2=O)C[C@@](O)(C(=O)CO)C[C@@H]3O[C@H]1C[C@H](N)[C@H](O)[C@H](C)O1 [doxorubicin]
- tumor growth (B16 melanoma): slowed tumor growth
- survival (B16 melanoma): 30%

Molecule: Poly(I:C)
- tumor growth (B16 melanoma): slowed tumor growth
- survival (B16 melanoma): 50%

Molecule: Sar^9 Met(O2)^11—SP [SarSP]
- IFN-γ secretion (NK1R [3]): significantly augmented
- Tcell proliferation (NK1R [3]): significantly augmented
- DTH reactions (NK1R [4]): significantly increased DTH reactions
- MC activation and degranulation in skin (NK1R [5]; B6-WT mice): triggered MC activation and degranulation
- inflammatory response in skin (NK1R [5]; agent administered alone, B6-WT mice): did not induce inflammatory response
- inflammatory infiltrate in skin draining lymph node (NK1R [5]; co-administration with DNCB): significantly increases the inflammatory infiltrate
- inflammatory response in skin (NK1R [5]; co-administration with DNCB, B6-WT mice): significantly increased the number of inflammatory cells; also recorded: dramatically increased the magnitude of the inflammatory response and tissue damage
- number of MC in draining lymph nodes (NK1R [5]; mouse, in vivo): induced an increased number of MC

Molecule: particulate OVA: particulate ovalbumin, model antigen, in CMC microneedle arrays
- OVA-specific CTL activity in vivo [6]: Significant OVA-specific CTL activity

Molecule: soluble OVA: soluble ovalbumin, model antigen, in CMC microneedle arrays
- OVA-specific CTL activity in vivo [6]: Significant OVA-specific CTL activity
